From the supplement of paper PMC10307832

Experiments:
Assay in all cases: relative viability (nuclei count vs DMSO), 5 days (fraction); higher = more cells survive
[1] = tested on: NCI-H1563
In short: (§1)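 Dosing by pin tool came one day after lung cancer cell lines were seeded in 1536-well plates, using either one drug or a fixed anchor-drug dose plus five library-drug doses (not always all listed) in √10 steps. After 5 days, nuclei were counted on 4× images. Relative viability is treated-well nuclei count divided by vehicle-well nuclei count, and values are medians of duplicate plates.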

[2] = tested on: NCI-H1666
In short: as §1

[3] = tested on: HCC-78
In short: as §1

[4] = tested on: NCI-H322M
In short: as §1

[5] = tested on: RERF-LC-KJ
In short: as §1

[6] = tested on: PC-14
In short: as §1

[7] = tested on: HCC-827
In short: as §1

[8] = tested on: LK-2
In short: as §1

[9] = tested on: EKVX
In short: as §1

[10] = tested on: SW 1573
In short: as §1

[11] = tested on: EMC-BAC-2
In short: as §1

[12] = tested on: NCI-H1975
In short: as §1

[13] = tested on: SK-LU-1
In short: as §1

[14] = tested on: NCI-H23
In short: as §1

[15] = tested on: NCI-H2405
In short: as §1

[16] = tested on: LU99A
In short: as §1

[17] = tested on: NCI-H2126
In short: as §1

[18] = tested on: EPLC-272H
In short: as §1

Cc1sc2c(c1C)C(c1ccc(Cl)cc1)=N[C@@H](CC(=O)OC(C)(C)C)c1nnc(C)n1-2 [JQ1] + CS(=O)(=O)CCNCc1ccc(-c2ccc3ncnc(Nc4ccc(OCc5cccc(F)c5)c(Cl)c4)c3c2)o1 [Lapatinib] (partner 2 µM)
relative viability ([1]; first compound 0.04 µM): 0.89 | relative viability ([1]; first compound 0.1265 µM): 0.72 | relative viability ([1]; first compound 0.4 µM): 0.662 | relative viability ([1]; first compound 1.265 µM): 0.717 | relative viability ([1]; first compound 4 µM): 0.771 | relative viability ([2]; first compound 0.04 µM): 0.697 | relative viability ([2]; first compound 0.1265 µM): 0.476 | relative viability ([2]; first compound 0.4 µM): 0.379 | relative viability ([2]; first compound 1.265 µM): 0.278 | relative viability ([2]; first compound 4 µM): 0.288 | relative viability ([3]; first compound 0.04 µM): 0.861 | relative viability ([3]; first compound 0.1265 µM): 0.53 | relative viability ([3]; first compound 0.4 µM): 0.493 | relative viability ([3]; first compound 1.265 µM): 0.391 | relative viability ([3]; first compound 4 µM): 0.28 | relative viability ([4]; first compound 0.04 µM): 0.634 | relative viability ([4]; first compound 0.1265 µM): 0.658 | relative viability ([4]; first compound 0.4 µM): 0.572 | relative viability ([4]; first compound 1.265 µM): 0.506 | relative viability ([4]; first compound 4 µM): 0.467 | relative viability ([5]; first compound 0.04 µM): 0.807 | relative viability ([5]; first compound 0.1265 µM): 0.856 | relative viability ([5]; first compound 0.4 µM): 0.89 | relative viability ([5]; first compound 1.265 µM): 0.781 | relative viability ([5]; first compound 4 µM): 0.595 | relative viability ([6]; first compound 0.04 µM): 0.307 | relative viability ([6]; first compound 0.1265 µM): 0.245 | relative viability ([6]; first compound 0.4 µM): 0.352 | relative viability ([6]; first compound 1.265 µM): 0.284 | relative viability ([6]; first compound 4 µM): 0.211 | relative viability ([7]; first compound 0.04 µM): 0.206 | relative viability ([7]; first compound 0.4 µM): 0.21 | relative viability ([7]; first compound 1.265 µM): 0.189 | relative viability ([7]; first compound 4 µM): 0.202 | relative viability ([8]; first compound 0.04 µM): 0.886 | relative viability ([8]; first compound 0.1265 µM): 0.896 | relative viability ([8]; first compound 0.4 µM): 0.456 | relative viability ([8]; first compound 1.265 µM): 0.177 | relative viability ([8]; first compound 4 µM): 0.286 | relative viability ([9]; first compound 0.04 µM): 0.256 | relative viability ([9]; first compound 0.1265 µM): 0.269 | relative viability ([9]; first compound 0.4 µM): 0.244 | relative viability ([9]; first compound 1.265 µM): 0.226 | relative viability ([9]; first compound 4 µM): 0.141 | relative viability ([10]; first compound 0.04 µM): 1.13 | relative viability ([10]; first compound 0.1265 µM): 0.886 | relative viability ([10]; first compound 0.4 µM): 0.881 | relative viability ([10]; first compound 1.265 µM): 0.61 | relative viability ([10]; first compound 4 µM): 0.512 | relative viability ([11]; first compound 0.04 µM): 0.841 | relative viability ([11]; first compound 0.1265 µM): 0.905 | relative viability ([11]; first compound 0.4 µM): 0.949 | relative viability ([11]; first compound 1.265 µM): 0.551 | relative viability ([11]; first compound 4 µM): 0.495 | relative viability ([12]; first compound 0.04 µM): 0.85 | relative viability ([12]; first compound 0.1265 µM): 0.551 | relative viability ([12]; first compound 0.4 µM): 0.565 | relative viability ([12]; first compound 1.265 µM): 0.351 | relative viability ([12]; first compound 4 µM): 0.333 | relative viability ([13]; first compound 0.04 µM): 0.891 | relative viability ([13]; first compound 0.1265 µM): 0.709 | relative viability ([13]; first compound 0.4 µM): 0.838 | relative viability ([13]; first compound 1.265 µM): 0.388 | relative viability ([13]; first compound 4 µM): 0.271 | relative viability ([14]; first compound 0.04 µM): 0.956 | relative viability ([14]; first compound 0.1265 µM): 0.943 | relative viability ([14]; first compound 0.4 µM): 1.09 | relative viability ([14]; first compound 1.265 µM): 0.301 | relative viability ([14]; first compound 4 µM): 0.362 | relative viability ([15]; first compound 0.04 µM): 1.19 | relative viability ([15]; first compound 0.4 µM): 1.12 | relative viability ([15]; first compound 1.265 µM): 0.587 | relative viability ([15]; first compound 4 µM): 0.485 | relative viability ([16]; first compound 0.04 µM): 1.14 | relative viability ([16]; first compound 0.1265 µM): 0.933 | relative viability ([16]; first compound 0.4 µM): 0.902 | relative viability ([16]; first compound 1.265 µM): 0.316 | relative viability ([16]; first compound 4 µM): 0.217 | relative viability ([17]; first compound 0.04 µM): 0.759 | relative viability ([17]; first compound 0.1265 µM): 0.746 | relative viability ([17]; first compound 0.4 µM): 0.755 | relative viability ([17]; first compound 1.265 µM): 0.604 | relative viability ([17]; first compound 4 µM): 0.68 | relative viability ([18]; first compound 0.04 µM): 0.937 | relative viability ([18]; first compound 0.1265 µM): 0.98 | relative viability ([18]; first compound 0.4 µM): 0.994 | relative viability ([18]; first compound 1.265 µM): 0.519 | relative viability ([18]; first compound 4 µM): 0.5
